System: patients with relapsed and/or relapsed-refractory multiple myeloma
Test: Safety of various dosages of melflufen, TEAEs (Example 1)
Assay type: in vivo, human
Protocol: Example 1: 4 dose levels (15, 25, 40 and 55 mg) of intravenous melflufen hydrochloride (excluding the mass of the salt component) in 290 to 370 ml glucose solution administered over 30 minutes on Day 1 of a 21-day cycle (in combination with dexamethasone treatment on Days 1, 8 and 15), for at least 1 cycle and up to 12 cycles, were evaluated.
Treatment emergent adverse events (TEAEs) of any grade were recorded in 29 patients that took part in Example 1 (4 patients at 15 mg dosage of melflufen over 30 minutes; 7 patients at 25 mg dosage of melflufen over 30 minutes; 12 patients at 40 mg dosage of melflufen over 30 minutes; and 6 patients at 55 mg dosage of melflufen over 30 minutes).

[1] = 55 mg melflufen hydrochloride, 6 patients
[2] = Example 1, all dose levels, 29 patients

CCOC(=O)[C@H](Cc1ccc(F)cc1)NC(=O)[C@@H](N)Cc1ccc(N(CCCl)CCCl)cc1.Cl [melflufen, L-Melphalanyl-4-fluoro-L-phenylalanine ethyl ester]
Any treatment-related Grade 3 and 4 TEAE, n patients (15 mg over 30 min (n = 4)): 2 | Any treatment-related Grade 3 and 4 TEAE, total number of events (15 mg over 30 min (n = 4)): (4) | Grade 3 and 4 febrile neutropenia, n patients (15 mg over 30 min (n = 4)): 1 | Grade 3 and 4 febrile neutropenia, total number of events (15 mg over 30 min (n = 4)): (1) | Grade 3 and 4 neutropenia, n patients (15 mg over 30 min (n = 4)): 0 | Grade 3 and 4 neutropenia, total number of events (15 mg over 30 min (n = 4)): (0) | Grade 3 and 4 thrombocytopenia, n patients (15 mg over 30 min (n = 4)): 1 | Grade 3 and 4 thrombocytopenia, total number of events (15 mg over 30 min (n = 4)): (1) | Any treatment-related Grade 3 and 4 TEAE, n patients (25 mg over 30 min (n = 7)): 5 | Any treatment-related Grade 3 and 4 TEAE, total number of events (25 mg over 30 min (n = 7)): (13) | Grade 3 and 4 febrile neutropenia, n patients (25 mg over 30 min (n = 7)): 0 | Grade 3 and 4 febrile neutropenia, total number of events (25 mg over 30 min (n = 7)): (0) | Grade 3 and 4 neutropenia, n patients (25 mg over 30 min (n = 7)): 2 | Grade 3 and 4 neutropenia, total number of events (25 mg over 30 min (n = 7)): (6) | Grade 3 and 4 thrombocytopenia, n patients (25 mg over 30 min (n = 7)): 2 | Grade 3 and 4 thrombocytopenia, total number of events (25 mg over 30 min (n = 7)): (3) | Any treatment-related Grade 3 and 4 TEAE, n patients (40 mg over 30 min (n = 12)): 7 | Any treatment-related Grade 3 and 4 TEAE, total number of events (40 mg over 30 min (n = 12)): (23) | Grade 3 and 4 febrile neutropenia, n patients (40 mg over 30 min (n = 12)): 1 | Grade 3 and 4 febrile neutropenia, total number of events (40 mg over 30 min (n = 12)): (2) | Grade 3 and 4 neutropenia, n patients (40 mg over 30 min (n = 12)): 4 | Grade 3 and 4 neutropenia, total number of events (40 mg over 30 min (n = 12)): (8) | Grade 3 and 4 thrombocytopenia, n patients (40 mg over 30 min (n = 12)): 4 | Grade 3 and 4 thrombocytopenia, total number of events (40 mg over 30 min (n = 12)): (9) | Anemia, treatment related ≥grade 3 [1]: (33) % | Any treatment-related grade 3 and/or grade 4, ≥grade 3 [1]: (100) % | Blood and lymphatic system disorders, treatment related ≥grade 3 [1]: (100) % | Cutaneous rash, treatment related ≥grade 3 [1]: (17) % | Fatigue, treatment related ≥grade 3 [1]: (17) % | General disorders and administration site conditions, treatment related ≥grade 3 [1]: (17) % | Infections and infestations, treatment related ≥grade 3 [1]: (50) % | Neutropenia, treatment related ≥grade 3 [1]: (100) % | Pancytopenia, treatment related ≥grade 3 [1]: (17) % | Pneumonia, treatment related ≥grade 3 [1]: (33) % | Sepsis, treatment related ≥grade 3 [1]: (17) % | Skin and subcutaneous disorders, treatment related ≥grade 3 [1]: (17) % | Thrombocytopenia, treatment related ≥grade 3 [1]: (83) % | Urinary tract infection, treatment related ≥grade 3 [1]: (17) % | Any treatment-related Grade 3 and 4 TEAE, n patients (55 mg over 30 min (n = 6)): 6 | Any treatment-related Grade 3 and 4 TEAE, total number of events (55 mg over 30 min (n = 6)): (58) | Grade 3 and 4 febrile neutropenia, n patients (55 mg over 30 min (n = 6)): 1 | Grade 3 and 4 febrile neutropenia, total number of events (55 mg over 30 min (n = 6)): (1) | Grade 3 and 4 neutropenia, n patients (55 mg over 30 min (n = 6)): 5 | Grade 3 and 4 neutropenia, total number of events (55 mg over 30 min (n = 6)): (17) | Grade 3 and 4 thrombocytopenia, n patients (55 mg over 30 min (n = 6)): 5 | Grade 3 and 4 thrombocytopenia, total number of events (55 mg over 30 min (n = 6)): (28) | related Grade 3 or 4 neutropenia at least once, patients (Example 1, all dose levels): 38% | related Grade 3 or 4 thrombocytopenia at least once, patients (Example 1, all dose levels): 41% | total number of TEAEs reported (Example 1, all dose levels 15-55 mg, 29 patients): 157 | Grade 3 or 4 TEAEs, regardless of relationship, patients [2]: 76% | anemia, all grades, regardless of relationship [2]: 59% | anemia, all grades, regardless of relationship, n patients [2]: 17 | nausea, all grades, regardless of relationship [2]: 38% | nausea, all grades, regardless of relationship, n patients [2]: 11 | neutropenia, all grades, regardless of relationship [2]: 41% | neutropenia, all grades, regardless of relationship, n patients [2]: 12 | thrombocytopenia, all grades, regardless of relationship [2]: 69% | thrombocytopenia, all grades, regardless of relationship, n patients [2]: 20 | Grade 3 or 4 TEAEs, regardless of relationship, n patients (Example 1, all dose levels, of 29 patients): 22

Reference: patent US20220047507A1, “MELFLUFEN DOSAGE REGIMENS FOR CANCER” (ONCOPEPTIDES AB, priority 2015, published 2022)
